Data from US12419873B2, “Use of JAK inhibitors in preparation of drugs for treating JAK kinase-related diseases” (ZHUHAI UNITED LABORATORIES CO., LTD., priority 2020, dated 2025).
“Also recorded” adds a separate entry of the source.

Tests used:
TYK2 = TYK2 (Homo sapiens (Human), UniProt P29597); assay: In vitro activity test of TYK2 kinase; type: biochemical
Method: (§1) Recombinant human JAK1, JAK2, JAK3, TyK2 protease, main instruments and reagents were provided by Eurofins in the UK
(§2) All compounds were prepared into a 100% DMSO solution and reached 50 times the final determined concentration. The test compound was diluted by 3 times the concentration gradient, and the final concentration was 10 μM to 0.001 μM, 9 concentrations in total, and the content of DMSO in the detection reaction was 2%. The working stock solution of the compound was added to a determination hole as the first component of the reaction, and then the remaining components were added according to the detailed scheme determination below.
(§3) Mg/ATP mixture was added to start the reaction. After incubation at room temperature for 40 minutes, 0.5% phosphoric acid was added to stop the reaction.

JAK1 = JAK1 (Homo sapiens (Human), UniProt P23458); assay: In vitro activity test of JAK1 kinase; type: biochemical
Method: as §1, §2, §3

[1] = system: DSS induced ulcerative colitis and Crohn's disease in mice; assay: In vivo pharmacodynamic study on DSS induced inflammatory bowel disease (IBD) in mice; design: species or system mice (C57BL/6); Colon length: unit not given here
Text: Inflammatory bowl disease (IBD) is a kind of recurrent disease. It is difficult to cure, has a high recurrence rate, and has a poor prognosis, it has a certain correlation with the incidence of colon cancer. The development of drugs for the treatment of IBD will help alleviate the symptoms of ulcerative colitis and Crohn's disease and improve the quality of life of patients. The mouse inflammation model induced by dextran sulfate sodium (DSS) is similar to the human disease ulcerative colitis and Crohn's disease. It is a common classical model for preclinical evaluation of drug efficacy.
Preparation method of DSS: 20 g DSS was weighed, 1000 mL drinking water was added to form 2% DSS solution, and stored in a 4° C. refrigerator. It is effective within one month.
Preparation method of a solvent: Vehicle solution is an aqueous solution containing 0.5% methylcellulose and 0.5% Tween 80. Firstly, 5 g of methylcellulose was dissolved in 990 mL of pure water, then 5 g of Tween 80 was added in small amount for many times, mixed evenly and stored at room temperature.
Preparation method of compounds: the compound was weighed, an aqueous solution with a mass ratio of 0.5% methylcellulose+0.5% Tween 80 was added, and it was processed by ultrasonic until it was dissolved.
The adaptation period of the animals was 3 days. After adaptation, the animals were weighed every day. The blank group was given drinking water, and the other groups were given drinking water containing 2% DSS. The water volume was 5 mL/animal/day. The animals in the test drug group were administrated by gavage once a day. The blank group and […] group were given the same volume of vehicle, with the administration volume of 10 mL/kg. Every other day, the fecal viscosity was evaluated, feces were collected for fecal occult blood detection, and the disease activity index (DAI) score was calculated. DSS consumption was detected every day. Fresh DSS solution was replaced every two days. The dosing cycle was continuous intragastric administration for 7 days, followed by 4 days of drug withdrawal, followed by 7 days of continuous intragastric administration. Normal drinking water was changed when intragastric administration was stopped.
DAI is the sum of the scores of body weight, fecal viscosity and fecal occult blood. Among them, the semi quantitative detection method of piramine cave was adopted for detecting fecal occult blood, including adding piramine cave to the sample first, then adding hydrogen peroxide and ethanol solution, and reading and scoring the color within 2 min. Immediately generating purple blue is marked as 4+, generating the purple blue within 10 s is marked as 3+, generating purple red within 1 min is marked as 2+, and gradually generating the purple red within 1-2 min is marked as 1+, and generating no color reaction of purple orchid or purple red within the reading time is recorded as negative (−). After the experiment, the colon and spleen were taken, and the length of colon and the weight of spleen were measured. The spleen index was the ratio of spleen weight to body weight.

[2] = system: DNCB induced allergic dermatitis in mice; assay: In vivo pharmacodynamic study on DNCB induced allergic dermatitis (AD) in mice
Method: The animal allergic dermatitis model induced by 1-chloro-2,4-dinitrobenzene (DNCB) is basically consistent with the clinical manifestations of AD patients.
Preparation method of solvent: vehicle solution is 30% PEG-400+70% (5% HP-β-CD), pH 4-5. Firstly, 35 g HP-β-CD was dissolved in 700 mL MilliQ pure water, 300 mL PEG-400 was added and mixed well, the pH was adjusted to 4-5, and stored at room temperature.
Preparation method of compounds: the compounds were weighed and added to 30% PEG-400+ 70% (5% HP-β-CD) solution (by volume), and ultrasonically processed. After the solution was fully mixed, it is load into glass bottles and stored in a 4° C. refrigerator.
Seventy male Balb/c mice were weighed and randomly divided into 7 groups with 10 mice in each group.
The animal adaptation period was 3 days. It was adapted to shaving on the back. After 2 days, it was sensitized with the modeling solution, coated with 20 μL 0.5% DNCB solution on the right ear of the mouse, applied with 200 μL 0.5% DNCB solution on the back, once a day for 3 days. The mice were stimulated from day 4, and applied with 10 μL 1% DNCB solution on the right ear of mice, 100 μL 1% DNCB solution on the back of mice, respectively, once every 3 days.
On days 3, 9, 15, 21, and 27, the severity of specific dermatitis was evaluated by evaluating four clinical inflammatory indicators of atopic dermatitis: Erythema/bleeding, scar/dryness, edema, and infiltration/erosion. Each evaluation index has four grades: 0, none; 1. slight; 2. moderate; 3. obvious; 4. very obvious. Sum the scores represents score of the skin. […] The spleen was taken and the spleen index was calculated: spleen index=spleen weight (mg)/body weight (g).
The experimental data were expressed by means±standard error (Mean±SEM), and all data were statistically analyzed by one-way ANOVA, with P<0.05 as the statistical difference.

JAK2 = JAK2 (Homo sapiens (Human), UniProt O60674); assay: In vitro activity test of JAK2 kinase; settings: read-out: JAK2 (IC50)
JAK3 = JAK3 (Homo sapiens (Human), UniProt P52333); assay: In vitro activity test of JAK3 kinase; type: biochemical
Method: as §1, §2, §3

[3] = day 2, 15 mg/kg p.o. qd, Mean±SEM
[4] = day 4, 15 mg/kg p.o. qd, Mean±SEM
[5] = day 6, 15 mg/kg p.o. qd, Mean±SEM
[6] = day 8, 15 mg/kg p.o. qd, Mean±SEM
[7] = day 12, 15 mg/kg p.o. qd, Mean±SEM
[8] = day 14, 15 mg/kg p.o. qd, Mean±SEM
[9] = day 16, 15 mg/kg p.o. qd, Mean±SEM
[10] = day 18, 15 mg/kg p.o. qd, Mean±SEM
[11] = after the experiment, 30 mg/kg p.o. qd, 28 days, Mean±SEM

Chain of JAK2 (O60674 whole entry): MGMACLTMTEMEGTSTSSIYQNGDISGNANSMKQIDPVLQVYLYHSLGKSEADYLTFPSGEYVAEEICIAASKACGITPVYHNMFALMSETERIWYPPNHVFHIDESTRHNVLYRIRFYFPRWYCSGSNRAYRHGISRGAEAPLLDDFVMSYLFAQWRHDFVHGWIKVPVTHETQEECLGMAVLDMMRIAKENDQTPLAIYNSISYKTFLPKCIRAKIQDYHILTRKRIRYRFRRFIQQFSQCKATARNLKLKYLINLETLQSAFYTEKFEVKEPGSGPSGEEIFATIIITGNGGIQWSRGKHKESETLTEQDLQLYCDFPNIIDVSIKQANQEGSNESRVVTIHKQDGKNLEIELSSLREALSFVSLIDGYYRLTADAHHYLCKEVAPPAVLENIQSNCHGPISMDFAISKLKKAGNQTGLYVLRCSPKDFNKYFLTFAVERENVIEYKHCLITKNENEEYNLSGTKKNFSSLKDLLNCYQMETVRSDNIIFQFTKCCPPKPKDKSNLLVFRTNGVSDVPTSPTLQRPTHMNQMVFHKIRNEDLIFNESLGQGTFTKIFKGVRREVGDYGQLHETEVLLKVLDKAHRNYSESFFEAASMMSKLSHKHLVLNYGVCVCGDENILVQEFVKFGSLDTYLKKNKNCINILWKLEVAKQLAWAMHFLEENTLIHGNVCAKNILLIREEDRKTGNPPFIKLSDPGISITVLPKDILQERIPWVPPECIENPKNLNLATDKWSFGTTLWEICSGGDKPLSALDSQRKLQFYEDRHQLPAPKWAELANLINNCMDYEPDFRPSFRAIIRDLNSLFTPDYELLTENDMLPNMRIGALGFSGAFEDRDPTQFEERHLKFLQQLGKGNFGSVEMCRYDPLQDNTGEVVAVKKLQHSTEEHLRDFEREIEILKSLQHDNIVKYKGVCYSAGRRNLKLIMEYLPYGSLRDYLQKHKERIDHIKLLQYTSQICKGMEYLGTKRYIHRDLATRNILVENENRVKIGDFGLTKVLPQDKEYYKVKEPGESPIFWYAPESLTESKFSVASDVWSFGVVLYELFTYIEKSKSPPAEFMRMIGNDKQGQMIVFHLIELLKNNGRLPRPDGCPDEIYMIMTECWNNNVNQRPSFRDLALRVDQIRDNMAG
Chain of JAK3 (P52333 whole entry): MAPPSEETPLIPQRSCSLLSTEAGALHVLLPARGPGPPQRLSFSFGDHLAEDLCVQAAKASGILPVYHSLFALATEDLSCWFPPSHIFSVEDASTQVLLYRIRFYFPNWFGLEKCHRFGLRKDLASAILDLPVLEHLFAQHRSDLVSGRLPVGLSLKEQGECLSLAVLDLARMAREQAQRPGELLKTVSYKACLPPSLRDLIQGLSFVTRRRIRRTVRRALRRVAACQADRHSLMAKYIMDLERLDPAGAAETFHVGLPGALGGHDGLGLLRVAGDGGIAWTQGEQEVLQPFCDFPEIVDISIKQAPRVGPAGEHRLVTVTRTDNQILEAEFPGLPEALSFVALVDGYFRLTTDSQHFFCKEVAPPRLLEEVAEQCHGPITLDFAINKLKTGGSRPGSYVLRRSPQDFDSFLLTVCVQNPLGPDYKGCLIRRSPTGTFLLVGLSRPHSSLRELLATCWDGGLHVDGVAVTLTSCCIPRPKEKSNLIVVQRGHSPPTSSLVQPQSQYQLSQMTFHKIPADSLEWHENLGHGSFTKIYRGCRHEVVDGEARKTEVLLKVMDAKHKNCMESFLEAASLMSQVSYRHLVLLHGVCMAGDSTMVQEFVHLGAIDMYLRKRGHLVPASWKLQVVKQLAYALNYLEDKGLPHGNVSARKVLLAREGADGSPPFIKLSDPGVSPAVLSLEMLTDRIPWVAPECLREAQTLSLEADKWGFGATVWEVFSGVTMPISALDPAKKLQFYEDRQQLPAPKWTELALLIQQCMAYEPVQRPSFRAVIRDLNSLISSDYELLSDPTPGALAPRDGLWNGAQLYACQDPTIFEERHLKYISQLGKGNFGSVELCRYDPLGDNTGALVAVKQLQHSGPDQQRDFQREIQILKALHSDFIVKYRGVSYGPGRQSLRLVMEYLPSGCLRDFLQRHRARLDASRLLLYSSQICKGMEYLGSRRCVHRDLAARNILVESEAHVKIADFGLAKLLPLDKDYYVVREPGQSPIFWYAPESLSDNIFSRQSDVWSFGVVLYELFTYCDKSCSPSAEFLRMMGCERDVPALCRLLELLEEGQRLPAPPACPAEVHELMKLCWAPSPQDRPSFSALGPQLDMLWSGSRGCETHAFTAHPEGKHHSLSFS
Chain of TYK2 (P29597 whole entry): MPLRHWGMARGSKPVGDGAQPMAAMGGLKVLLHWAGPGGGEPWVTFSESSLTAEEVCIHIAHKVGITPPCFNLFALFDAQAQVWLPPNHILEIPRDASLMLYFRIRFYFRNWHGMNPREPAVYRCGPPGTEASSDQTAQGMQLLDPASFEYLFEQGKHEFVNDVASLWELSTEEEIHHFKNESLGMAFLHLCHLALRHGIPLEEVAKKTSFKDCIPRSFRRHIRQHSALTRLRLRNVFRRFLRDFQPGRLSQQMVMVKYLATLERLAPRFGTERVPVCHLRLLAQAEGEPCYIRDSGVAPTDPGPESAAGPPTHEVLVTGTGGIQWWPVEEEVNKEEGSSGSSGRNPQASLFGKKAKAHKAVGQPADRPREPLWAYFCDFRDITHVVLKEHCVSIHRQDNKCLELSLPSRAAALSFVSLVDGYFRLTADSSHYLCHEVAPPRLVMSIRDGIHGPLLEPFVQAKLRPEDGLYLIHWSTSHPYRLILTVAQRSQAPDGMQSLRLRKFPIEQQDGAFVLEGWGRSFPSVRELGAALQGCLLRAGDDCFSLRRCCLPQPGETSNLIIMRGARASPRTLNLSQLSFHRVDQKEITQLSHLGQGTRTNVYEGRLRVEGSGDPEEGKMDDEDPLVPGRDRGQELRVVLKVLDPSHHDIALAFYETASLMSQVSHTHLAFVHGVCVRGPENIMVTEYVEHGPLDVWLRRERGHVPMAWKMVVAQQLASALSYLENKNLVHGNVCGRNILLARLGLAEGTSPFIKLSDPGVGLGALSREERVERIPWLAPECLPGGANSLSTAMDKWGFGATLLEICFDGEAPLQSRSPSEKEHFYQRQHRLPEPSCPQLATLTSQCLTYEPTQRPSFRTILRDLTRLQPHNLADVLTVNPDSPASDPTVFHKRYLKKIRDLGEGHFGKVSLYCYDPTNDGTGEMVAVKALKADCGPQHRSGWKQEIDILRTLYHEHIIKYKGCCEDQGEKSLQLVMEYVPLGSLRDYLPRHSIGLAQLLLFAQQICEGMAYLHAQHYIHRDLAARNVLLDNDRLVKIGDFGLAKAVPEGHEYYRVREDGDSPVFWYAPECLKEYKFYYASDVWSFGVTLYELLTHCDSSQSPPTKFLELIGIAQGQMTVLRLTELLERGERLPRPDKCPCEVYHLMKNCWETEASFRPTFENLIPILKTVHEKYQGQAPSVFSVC
Chain of JAK1 (P23458 whole entry): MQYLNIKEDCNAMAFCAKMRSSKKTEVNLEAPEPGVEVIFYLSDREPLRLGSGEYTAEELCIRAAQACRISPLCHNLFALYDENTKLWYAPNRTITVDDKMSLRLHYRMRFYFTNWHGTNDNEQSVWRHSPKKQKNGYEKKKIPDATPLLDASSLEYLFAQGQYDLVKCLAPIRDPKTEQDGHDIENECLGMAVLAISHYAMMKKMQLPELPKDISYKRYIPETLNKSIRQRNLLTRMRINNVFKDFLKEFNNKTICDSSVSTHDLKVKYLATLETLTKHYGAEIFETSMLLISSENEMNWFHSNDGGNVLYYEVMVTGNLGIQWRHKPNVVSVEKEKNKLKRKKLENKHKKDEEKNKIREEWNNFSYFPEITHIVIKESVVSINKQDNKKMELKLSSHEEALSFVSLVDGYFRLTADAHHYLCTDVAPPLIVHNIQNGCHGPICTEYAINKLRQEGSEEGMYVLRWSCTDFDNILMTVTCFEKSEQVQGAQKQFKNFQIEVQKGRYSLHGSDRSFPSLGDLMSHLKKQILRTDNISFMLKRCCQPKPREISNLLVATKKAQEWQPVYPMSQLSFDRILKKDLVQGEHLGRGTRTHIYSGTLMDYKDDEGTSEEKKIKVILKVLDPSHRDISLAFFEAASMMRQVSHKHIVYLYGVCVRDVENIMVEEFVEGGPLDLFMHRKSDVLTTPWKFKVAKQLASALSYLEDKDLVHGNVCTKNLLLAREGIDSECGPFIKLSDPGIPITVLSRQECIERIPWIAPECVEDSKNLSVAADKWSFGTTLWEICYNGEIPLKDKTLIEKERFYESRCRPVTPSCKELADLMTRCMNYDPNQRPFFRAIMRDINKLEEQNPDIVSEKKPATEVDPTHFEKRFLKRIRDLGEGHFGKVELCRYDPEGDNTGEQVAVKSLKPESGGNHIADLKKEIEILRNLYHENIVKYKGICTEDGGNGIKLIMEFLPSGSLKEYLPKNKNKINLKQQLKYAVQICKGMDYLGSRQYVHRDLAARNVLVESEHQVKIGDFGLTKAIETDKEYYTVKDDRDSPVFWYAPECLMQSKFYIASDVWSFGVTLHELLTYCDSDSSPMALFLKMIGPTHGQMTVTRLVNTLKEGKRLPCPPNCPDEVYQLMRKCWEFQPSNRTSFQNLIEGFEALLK

SMILES: O=C(Nc1nc2cccc(C3CCC4(CC3)CN(C(=O)[C@H]3CC3(F)F)C4)n2n1)[C@@H]1CC1(F)F [Compound 9-3]
- IC50 (TYK2): 0.105 µM
- IC50 (JAK1): 0.007 µM
- Colon shortening caused by DSS, compared with DSS group (in words) ([1]; 15 mg/kg p.o.): can reduce colon shortening
- Increase of spleen index induced by DSS (in words) ([1]; 15 mg/kg p.o.): could reduce the increase of spleen index
- Colon length ([1]; after the experiment, 15 mg/kg p.o. qd, Mean±SEM): 2.87 ± 0.11
- Weight of mice ([1]; day 1, 15 mg/kg p.o. qd, Mean±SEM): 22.26 ± 0.29
- DAI score [1, 3]: 0.40 ± 0.16
- Weight of mice [1, 3]: 22.48 ± 0.29
- Weight of mice ([1]; day 3, 15 mg/kg p.o. qd, Mean±SEM): 22.39 ± 0.27
- DAI score [1, 4]: 1.70 ± 0.54
- Weight of mice [1, 4]: 22.26 ± 0.31
- Weight of mice ([1]; day 5, 15 mg/kg p.o. qd, Mean±SEM): 22.18 ± 0.40
- DAI score [1, 5]: 2.40 ± 0.37
- Weight of mice [1, 5]: 22.00 ± 0.43
- Weight of mice ([1]; day 7, 15 mg/kg p.o. qd, Mean±SEM): 21.21 ± 0.53
- DAI score [1, 6]: 4.70 ± 0.94
- Weight of mice [1, 6]: 20.72 ± 0.67
- Weight of mice ([1]; day 9, 15 mg/kg p.o. qd, Mean±SEM): 19.89 ± 0.37
- Weight of mice ([1]; day 10, 15 mg/kg p.o. qd, Mean±SEM): 18.92 ± 0.47
- Weight of mice ([1]; day 11, 15 mg/kg p.o. qd, Mean±SEM): 18.60 ± 0.62
- DAI score [1, 7]: 4.11 ± 0.53
- Weight of mice [1, 7]: 18.50 ± 0.74
- Weight of mice ([1]; day 13, 15 mg/kg p.o. qd, Mean±SEM): 19.42 ± 0.78
- DAI score [1, 8]: 4.88 ± 0.44
- Weight of mice [1, 8]: 19.26 ± 0.93
- Weight of mice ([1]; day 15, 15 mg/kg p.o. qd, Mean±SEM): 19.96 ± 0.84
- DAI score [1, 9]: 3.67 ± 0.86
- Weight of mice [1, 9]: 20.84 ± 0.46
- Weight of mice ([1]; day 17, 15 mg/kg p.o. qd, Mean±SEM): 20.42 ± 0.50
- DAI score [1, 10]: 4.83 ± 0.68
- Weight of mice [1, 10]: 19.78 ± 0.43
- Spleen index ([1]; ratio of spleen weight to body weight, 15 mg/kg p.o. qd, Mean±SEM): 4.98 ± 0.40
- Effect on the weight of mice (in words) ([2]; 30 mg/kg p.o. qd, 28 days): no significant effect
- Effect on treating allergic dermatitis (in words) ([2]; 30 mg/kg p.o. qd, DNCB mice): good disease treatment effect; also recorded: significant effect
- Concentration of IgE in serum after drug intervention (in words) ([2]; 30 mg/kg p.o., vs DNCB group): significantly decreased
- Spleen index after drug intervention (in words) ([2]; 30 mg/kg p.o., vs DNCB group): significantly decreased
- Thickness of the right ear after drug intervention (in words) ([2]; 30 mg/kg p.o., vs DNCB group): significantly decreased
- IgE concentration in serum [2, 11]: 6.39 ± 1.04
- Thickness of the right ear [2, 11]: 0.252 ± 0.006
- Weight of mice ([2]; day 1, 30 mg/kg p.o. qd from day 4, Mean±SEM): 19.32 ± 0.46
- Skin score ([2]; day 3, 30 mg/kg p.o. qd from day 4, Mean±SEM): 0.7 ± 0.5
- Weight of mice ([2]; day 4, 30 mg/kg p.o. qd, Mean±SEM): 20.02 ± 0.41
- Weight of mice ([2]; day 7, 30 mg/kg p.o. qd, Mean±SEM): 19.24 ± 0.47
- Skin score ([2]; day 9, 30 mg/kg p.o. qd, Mean±SEM): 3.4 ± 0.7
- Weight of mice ([2]; day 10, 30 mg/kg p.o. qd, Mean±SEM): 19.41 ± 0.58
- Weight of mice ([2]; day 13, 30 mg/kg p.o. qd, Mean±SEM): 20.83 ± 0.42
- Skin score ([2]; day 15, 30 mg/kg p.o. qd, Mean±SEM): 4.2 ± 0.6
- Weight of mice ([2]; day 16, 30 mg/kg p.o. qd, Mean±SEM): 21.49 ± 0.45
- Weight of mice ([2]; day 19, 30 mg/kg p.o. qd, Mean±SEM): 23.36 ± 0.38
- Skin score ([2]; day 21, 30 mg/kg p.o. qd, Mean±SEM): 5.4 ± 0.9
- Weight of mice ([2]; day 22, 30 mg/kg p.o. qd, Mean±SEM): 23.67 ± 0.37
- Weight of mice ([2]; day 25, 30 mg/kg p.o. qd, Mean±SEM): 23.14 ± 0.42
- Skin score ([2]; day 27, 30 mg/kg p.o. qd, Mean±SEM): 2.2 ± 0.9
- Skin score compared with DNCB group (in words) ([2]; day 27 of administration, 30 mg/kg p.o.): significant reduction
- Weight of mice ([2]; day 28, 30 mg/kg p.o. qd, Mean±SEM): 24.15 ± 0.50
- Spleen index ([2]; spleen weight (mg)/body weight (g), 30 mg/kg p.o. qd, 28 days, Mean±SEM): 4.17 ± 0.65
- IC50 (JAK2): 0.292 µM
- IC50 (JAK3): > 10 µM
